Measurements: patent US9050346B2, “Bromodomain inhibitors” (AbbVie Inc., priority 2013, dated 2015)

Tests used:
BRD4 (BDII_E352-M457) = target: T1, BRD4 (BDII_E352-M457) (Homo sapiens, UniProt O60885); test: TR-FRET bromodomain binding assay, BRD4 second bromodomain
T1 construct: made in house
Protocol: (§1) A time-resolved fluorescence resonance energy transfer (TR-FRET) assay was used to determine the affinities of compounds of the Examples listed in Table 1 for each bromodomain of BRD4. His-tagged first (BD1: amino acids K57-E168) and second (BD2: amino acids E352-E168) bromodomains of BRD4 were expressed and purified. An Alexa647-labeled BET-inhibitor was used as the fluorescent probe in the assay.
(§2) Compound dilution series were prepared in DMSO via an approximately 3-fold serial dilution from one of the following: • Assay method A: 2.5 mM-800 nM • Assay method B: 2.5 mM-797 nM • Assay method C: 1250 μM-21 nM • Assay method D: 500 μM-8.5 nM • Assay method E: 0.47 mM to 7.8 nM • Assay method F: 250 μM-4.2 nM • Assay method G: 0.047 mM to 0.78 nM or 5-fold serial dilution from Assay Method A or Assay Method B.
(§3) For Assay methods A, C, D, and F: Compounds were then diluted 6:100 in assay buffer (20 mM Sodium Phosphate, pH 6.0, 50 mM NaCl, 1 mM Ethylenediaminetetraacetic acid, 0.01% Triton X-100, 1 mM DL-Dithiothreitol) to yield 3× working solutions. Six microliters (μL) of the working solution was then transferred to white, low-volume assay plates (Costar #3673). A 1.5× assay mixture containing His-tagged bromodomain, Europium-conjugated anti-His antibody (Invitrogen PV5596) and the Alexa-647-conjugated probe molecule was also prepared. Twelve μL of this solution were added to the assay plate to reach a final volume of 18 μL.
(§4) For Assay methods B, E, and G: Compound dilutions were added directly into white, low-volume assay plates (Perkin Elmer Proxiplate 384 Plus#6008280) using a Labcyte Echo in conjunction with Labcyte Access and Thermo Multidrop CombinL robotics. Compounds were then suspended in eight microliters (μL) of assay buffer (20 mM Sodium Phosphate, pH 6.0, 50 mM NaCl, 1 mM Ethylenediaminetetraacetic acid disodium salt dihydrate, 0.01% Triton X-100, 1 mM DL-Dithiothreitol) containing His-tagged bromodomain, Europium-conjugated anti-His antibody (Invitrogen PV5596) and Alexa-647-conjugated probe.
(§5) The final concentration of 1× assay mixture for assay methods A, B, C, D, E, F, and G contains 2% DMSO, 8 nM His-tagged bromodomain, 1 nM Europium-conjugated anti-His-tag antibody and 100 nM or 30 nM probe (for BDI or BDII, respectively) and compound concentration in the range of: 50 μM-16 nM for method A, 49.02 μM-15.63 nM for method B, 25 μM-423 pM for method C, 10 μM-169 pM for method D, 9.19 μM-150 pM for method E, 5 μM-85 pM for method F, and 0.92 μM-15 pM for method G.
(§6) After a one-hour equilibration at room temperature, TR-FRET ratios were determined using an Envision multilabel plate reader (Ex 340, Em 495/520).
(§7) TR-FRET data were normalized to the means of 24 no-compound controls (“high”) and 8 controls containing 1 μM un-labeled probe (“low”). Percent inhibition was plotted as a function of compound concentration and the data were fit with the 4 parameter logistic equation to obtain IC50s Inhibition constants (Ki) were calculated from the IC50s, probe Kd and probe concentration. Typical Z′ values were between 0.65 and 0.75. The minimum significant ratio was determined to evaluate assay reproducibility (Eastwood et al., (2006) J Biomol Screen, 11: 253-261). The MSR was determined to be 2.03 for BDI and 1.93 for BDII, and a moving MSR (last six run MSR overtime) for both BDI and BDII was typically <3.

BRD4 (BDI_K57-E168) = target: T2, BRD4 (BDI_K57-E168) (Homo sapiens, UniProt O60885); test: TR-FRET bromodomain binding assay, BRD4 first bromodomain; details: His-tagged BD1, 100 nM Alexa647 probe; Ki calculated from IC50; dilution protocol A-G
T2 construct: BD1: amino acids K57-E168; made in house
Protocol: as §1, §2, §3, §4, §5, §6, §7

[1] = system: breast cancer cell line MX-1; test: MX-1 cell line proliferation assay (3-day, Cell Titer Glo); assay type: cell-based; details: Homo sapiens, MX1, MX-1 cells, 72 h, top concentration 3 μM, read-out: Cellular proliferation: EC50
Protocol: The impact of compounds of the Examples on cancer cell proliferation was determined using the breast cancer cell line MX-1 (ATCC) in a 3-day proliferation assay and the data are reported in Table 1. MX-1 cells were maintained in RPMI 1640 medium (Sigma) supplemented with 10% FBS at 37 C.° and an atmosphere of 5% CO2. For compound testing, MX-1 cells were plated in 96-well black bottom plates at a density of 5000 cells/well in 90 μL of culture media and incubated at 37° overnight to allow cell adhesion and spreading. Compound dilution series were prepared in DMSO via a 3-fold serial dilution from 3 mM to 0.1 μM. The DMSO dilution series were then diluted 1:100 in phosphate buffered saline, and 10 μL of the resulted solution were added to the appropriate wells of the MX-1 cell plate. The final compound concentrations in the wells were 3, 1, 0.3, 0.1, 0.03, 0.01, 0.003, 0.001, 0.0003 and 0.0001 μM.
Luminescence readings from the Cell Titer Glo assay were normalized to the DMSO treated cells and analyzed using the GraphPad Prism software with sigmoidal curve fitting to obtain EC50s. The minimum significant ratio (MSR) was determined to evaluate assay reproducibility (Eastwood et al., (2006) J Biomol Screen, 11: 253-261).

Structure (SMILES) | Ki (BRD4 (BDII_E352-M457)) [nM] | Ki (BRD4 (BDI_K57-E168)) [nM] | EC50 [1] [nM]
CO[C@H]1C[C@H](NC(=O)c2cc3c(-c4ccccc4Oc4ccccc4)[nH]c(C)c3c(=O)[nH]2)C1 [Example 50, N-(trans-3-methoxycyclobutyl)-3-methyl-4-oxo-1-(2-phenoxyphenyl)-4,5-dihydro-2H-pyrrolo[3,4-c]pyridine-6-carboxamide] | 11.3 | 30.1 | 210
Cc1[nH]c(-c2cc(S(C)(=O)=O)ccc2Oc2ccc(F)cc2F)c2cc(C(N)=O)[nH]c(=O)c12 [Example 42, 1-[2-(2,4-difluorophenoxy)-5-(methylsulfonyl)phenyl]-3-methyl-4-oxo-4,5-dihydro-2H-pyrrolo[3,4-c]pyridine-6-carboxamide] | 56.9 | 22.4 | > 3000
CCOC(=O)c1cc2c(-c3cc(S(C)(=O)=O)ccc3Oc3ccc(F)cc3F)[nH]c(C)c2c(=O)[nH]1 [Example 39, ethyl 1-[2-(2,4-difluorophenoxy)-5-(methylsulfonyl)phenyl]-3-methyl-4-oxo-4,5-dihydro-2H-pyrrolo[3,4-c]pyridine-6-carboxylate] | 51.8 | 12.1 | 222
Cc1[nH]c(-c2ccccc2Oc2ccccc2)c2cc(C(=O)NC3CCN(C)CC3)[nH]c(=O)c12 [Example 35, 3-methyl-N-(1-methylpiperidin-4-yl)-4-oxo-1-(2-phenoxyphenyl)-4,5-dihydro-2H-pyrrolo[3,4-c]pyridine-6-carboxamide] | 48.5 | 5.21 | 53.6
Cc1[nH]c(-c2ccccc2Oc2ccccc2)c2cc(C(=O)NC3CCNCC3)[nH]c(=O)c12 [Example 57, 3-methyl-4-oxo-1-(2-phenoxyphenyl)-N-(piperidin-4-yl)-4,5-dihydro-2H-pyrrolo[3,4-c]pyridine-6-carboxamide] | 15.8 | 1.78 | 252
CCOC(=O)c1cc2c(-c3ccccc3Oc3ccc(F)cc3F)[nH]c(C)c2c(=O)[nH]1 [Example 21, ethyl 1-[2-(2,4-difluorophenoxy)phenyl]-3-methyl-4-oxo-4,5-dihydro-2H-pyrrolo[3,4-c]pyridine-6-carboxylate] | 285 | 24.8 | 104
CNC(=O)c1cc2c(-c3ccccc3Oc3ccccc3)[nH]c(C)c2c(=O)[nH]1 [Example 13, N,3-dimethyl-4-oxo-1-(2-phenoxyphenyl)-4,5-dihydro-2H-pyrrolo[3,4-c]pyridine-6-carboxamide] | 14.1 | 4.38 | 23.4
CCS(=O)(=O)c1ccc(NCC2CC2)c(-c2[nH]c(C)c3c(=O)[nH]ncc23)c1 [Example 84, 5-{2-[(cyclopropylmethyl)amino]-5-(ethylsulfonyl)phenyl}-7-methyl-2,6-dihydro-1H-pyrrolo[3,4-d]pyridazin-1-one] | 112 | 15.6 | 288
CCOC(=O)c1cc2c(-c3cc(NS(C)(=O)=O)ccc3Oc3ccc(F)cc3F)[nH]c(C)c2c(=O)[nH]1 [Example 9, ethyl 1-{2-(2,4-difluorophenoxy)-5-[(methylsulfonyl)amino]phenyl}-3-methyl-4-oxo-4,5-dihydro-2H-pyrrolo[3,4-c]pyridine-6-carboxylate] | 29.3 | 3.41 | 71.6
Cc1[nH]c(-c2cc(S(C)(=O)=O)ccc2Oc2ccc(F)cc2F)c2cn[nH]c(=O)c12 [Example 81, 5-[2-(2,4-difluorophenoxy)-5-(methylsulfonyl)phenyl]-7-methyl-2,6-dihydro-1H-pyrrolo[3,4-d]pyridazin-1-one] | 254 | 22.7 | 394
Cc1[nH]c(-c2cc(F)ccc2OCC2CC2)c2cc(-c3nc(-c4cnccn4)no3)[nH]c(=O)c12 [Example 71, 1-(2-(cyclopropylmethoxy)-5-fluorophenyl)-3-methyl-6-(3-(pyrazin-2-yl)-1,2,4-oxadiazol-5-yl)-2H-pyrrolo[3,4-c]pyridin-4(5H)-one] | 659 | 38.5 | 204
Cc1[nH]c(-c2cc(N)ccc2Oc2ccccc2)c2cn[nH]c(=O)c12 [Example 74, 5-(5-amino-2-phenoxyphenyl)-7-methyl-2,6-dihydro-1H-pyrrolo[3,4-d]pyridazin-1-one] | 18.6 | 1.88 | 78
Cc1[nH]c(-c2ccccc2Oc2ccccc2)c2cc(C(=O)N3CCN(C)CC3)[nH]c(=O)c12 [Example 16, 3-methyl-6-(4-methylpiperazine-1-carbonyl)-1-(2-phenoxyphenyl)-2H-pyrrolo[3,4-c]pyridin-4(5H)-one] | 170 | 32.7 | 616
Cc1[nH]c(-c2ccccc2Oc2ccc(F)cc2F)c2cc(C(N)=O)[nH]c(=O)c12 [Example 23, 1-[2-(2,4-difluorophenoxy)phenyl]-3-methyl-4-oxo-4,5-dihydro-2H-pyrrolo[3,4-c]pyridine-6-carboxamide] | 45.1 | 6.25 | 60.8
Cc1cc(-c2ccc(-c3[nH]c(C)c4c(=O)[nH]ncc34)cc2)[nH]n1 [Example 83, 7-methyl-5-[4-(3-methyl-1H-pyrazol-5-yl)phenyl]-2,6-dihydro-1H-pyrrolo[3,4-d]pyridazin-1-one] | 627 | 126 | 1720
Cc1[nH]c(-c2ccccc2Oc2ccccc2)c2cc(-c3nc(Cc4cccnc4)no3)[nH]c(=O)c12 [Example 66, 3-methyl-1-(2-phenoxyphenyl)-6-(3-(pyridin-3-ylmethyl)-1,2,4-oxadiazol-5-yl)-2H-pyrrolo[3,4-c]pyridin-4(5H)-one] | 151 | 9.31 | 81
Cc1[nH]c(-c2ccccc2Oc2ccccc2)c2cc(C(=O)N[C@@H]3CCN(C)C3)[nH]c(=O)c12 [Example 51, (R)-3-methyl-N-(1-methylpyrrolidin-3-yl)-4-oxo-1-(2-phenoxyphenyl)-4,5-dihydro-2H-pyrrolo[3,4-c]pyridine-6-carboxamide] | 190 | 6.13 | 117
Cc1[nH]c(-c2ccccc2Oc2ccccc2)c2cc(C(=O)NC3CN(C)C3)[nH]c(=O)c12 [Example 49, 3-methyl-N-(1-methylazetidin-3-yl)-4-oxo-1-(2-phenoxyphenyl)-4,5-dihydro-2H-pyrrolo[3,4-c]pyridine-6-carboxamide] | 70.2 | 3.43 | 138
